Laboratory results taken from patent US20240156097A1, “AGROCHEMICAL ADJUVANTS FROM STACHYBOTRYS CHARTARUM” (Croda International Plc, priority 2021, published 2024).

Key:
[1] = system: African green monkey Vero kidney cells (ATCC CCL-81); experiment: Cytotoxicity against Vero cells (alamarBlue); type: cell-based; conditions: highest concentration tested (128 μg/mL); 24 hours
Description: The cytotoxicity of the phenylspirodrimanes and stachybocin A was assessed in vitro against African green monkey Vero kidney cells (ATCC CCL-81). Cells were cultured in 15 mL of Eagle's minimal essential medium (Sigma) supplemented with 10% (v/v) fetal bovine serum (VWR), […] and 0.1 mg/mL streptomycin in T75 cm^2 cell culture flasks. Cells were incubated for 24 hours at 37° C. in a humidified atmosphere of 5% CO2. Culture medium was refreshed every 2-3 days and cells were not allowed to exceed 80% confluency.
At 80% confluency the cells were counted, diluted and plated into 96 well flat bottom cell culture plates (Corning) at a cell density of 10,000 cells per well in 90 μL of growth medium. The plates were incubated at 37° C. in a humidified atmosphere of 5% CO2 for 24 hours to allow cells to adhere to the plate before treatment. […]
The plates were incubated at 37° C. in a humidified atmosphere of 5% C02 for 24 hours after which alamarBlue (Invitrogen) was added to each well at 10% of the culture volume. Fluorescence was monitored using a Thermo Scientific Varioskan Flash plate reader at 560/12 excitation, 590 nm emission both at time zero and 4 hrs after alamarBlue addition. After subtracting the time zero emission 590 nm measurement from the final reading, the inferred percentage of cell viability relative to the vehicle control wells was calculated.

[2] = system: Botrytis cinerea (ATCC 90479); experiment: Adjuvancy: growth inhibition of Botrytis cinerea on agar with fungicide and/or adjuvant (colony diameter); type: cell-based; conditions: for Fold Change in Growth Inhibition: 48 h, 22° C.; for inherent fungicidal activity on their own: adjuvant alone, any of the concentrations tested; for fungicidal activity compared to dimethomorph, prothioconazole, mancozeb, metalaxyl and pyrimethanil alone: in words, adjuvant plus fungicide
[3] = adjuvant 12.5 μg/mL + pyraclostrobin 0.1 μg/mL vs pyraclostrobin alone
[4] = adjuvant 12.5 μg/mL + pyraclostrobin 0.2 μg/mL vs pyraclostrobin alone
[5] = adjuvant 12.5 μg/mL + pyraclostrobin 0.4 μg/mL vs pyraclostrobin alone
[6] = adjuvant 12.5 μg/mL + pyraclostrobin 0.8 μg/mL vs pyraclostrobin alone
[7] = adjuvant 12.5 μg/mL + tebuconazole 0.05 μg/mL vs tebuconazole alone
[8] = adjuvant 12.5 μg/mL + tebuconazole 0.10 μg/mL vs tebuconazole alone
[9] = adjuvant 12.5 μg/mL + tebuconazole 0.19 μg/mL vs tebuconazole alone
[10] = adjuvant 12.5 μg/mL + tebuconazole 0.38 μg/mL vs tebuconazole alone
[11] = adjuvant 25 μg/mL + pyraclostrobin 0.1 μg/mL vs pyraclostrobin alone
[12] = adjuvant 25 μg/mL + pyraclostrobin 0.2 μg/mL vs pyraclostrobin alone
[13] = adjuvant 25 μg/mL + pyraclostrobin 0.4 μg/mL vs pyraclostrobin alone
[14] = adjuvant 25 μg/mL + pyraclostrobin 0.8 μg/mL vs pyraclostrobin alone
[15] = adjuvant 25 μg/mL + tebuconazole 0.05 μg/mL vs tebuconazole alone
[16] = adjuvant 25 μg/mL + tebuconazole 0.10 μg/mL vs tebuconazole alone
[17] = adjuvant 25 μg/mL + tebuconazole 0.19 μg/mL vs tebuconazole alone
[18] = adjuvant 25 μg/mL + tebuconazole 0.38 μg/mL vs tebuconazole alone
[19] = adjuvant 50 μg/mL + pyraclostrobin 0.1 μg/mL vs pyraclostrobin alone
[20] = adjuvant 50 μg/mL + pyraclostrobin 0.2 μg/mL vs pyraclostrobin alone
[21] = adjuvant 50 μg/mL + pyraclostrobin 0.4 μg/mL vs pyraclostrobin alone
[22] = adjuvant 50 μg/mL + pyraclostrobin 0.8 μg/mL vs pyraclostrobin alone
[23] = adjuvant 50 μg/mL + tebuconazole 0.05 μg/mL vs tebuconazole alone
[24] = adjuvant 50 μg/mL + tebuconazole 0.10 μg/mL vs tebuconazole alone
[25] = adjuvant 50 μg/mL + tebuconazole 0.19 μg/mL vs tebuconazole alone
[26] = adjuvant 50 μg/mL + tebuconazole 0.38 μg/mL vs tebuconazole alone

CC1CCC2C(C)(C)C(O)CCC2(C)C12Cc1c(O)cc3c(c1O2)CN(C(Cc1ccccc1)C(=O)O)C3=O (stereo not drawn) [Phe (Ib), phenylspirodrimane (Ib)]
cytotoxicity against Vero cells [1]: did not exhibit any cytotoxicity
Fold Change in Growth Inhibition [2, 3]: 3.59
Fold Change in Growth Inhibition [2, 4]: 1.11
Fold Change in Growth Inhibition [2, 5]: 1.47
Fold Change in Growth Inhibition [2, 6]: 1.55
Fold Change in Growth Inhibition [2, 7]: 22.22
Fold Change in Growth Inhibition [2, 8]: 2.83
Fold Change in Growth Inhibition [2, 9]: 2.17
Fold Change in Growth Inhibition [2, 10]: 1.03
Fold Change in Growth Inhibition [2, 11]: 4.25
Fold Change in Growth Inhibition [2, 12]: 1.56
Fold Change in Growth Inhibition [2, 13]: 1.08
Fold Change in Growth Inhibition [2, 14]: 1.19
Fold Change in Growth Inhibition [2, 15]: 7.94
Fold Change in Growth Inhibition [2, 16]: 1.67
Fold Change in Growth Inhibition [2, 17]: 1.83
Fold Change in Growth Inhibition [2, 18]: 1.00
Fold Change in Growth Inhibition [2, 19]: 17.87
Fold Change in Growth Inhibition [2, 20]: 1.67
Fold Change in Growth Inhibition [2, 21]: 1.62
Fold Change in Growth Inhibition [2, 22]: 1.57
Fold Change in Growth Inhibition [2, 23]: 14.29
Fold Change in Growth Inhibition [2, 24]: 4.33
Fold Change in Growth Inhibition [2, 25]: 2.36
Fold Change in Growth Inhibition [2, 26]: 1.00
inherent fungicidal activity on their own [2]: did not demonstrate any inherent fungicidal activity
fungicidal activity compared to dimethomorph, prothioconazole, mancozeb, metalaxyl and pyrimethanil alone [2]: showed increased fungicidal activity

CC1CCC2C(C)(C)C(O)CCC2(C)C12Cc1c(O)cc3c(c1O2)CN(CCCCC(C(=O)O)N1Cc2c(cc(O)c4c2OC2(C4)C(C)CCC4C(C)(C)C(O)CCC42C)C1=O)C3=O (stereo not drawn) [Sta A (IIa), stachybocin A]
cytotoxicity against Vero cells [1]: did not exhibit any cytotoxicity
Fold Change in Growth Inhibition [2, 3]: 2.92
Fold Change in Growth Inhibition [2, 4]: 1.00
Fold Change in Growth Inhibition [2, 5]: 1.00
Fold Change in Growth Inhibition [2, 6]: 1.00
Fold Change in Growth Inhibition [2, 7]: 12.70
Fold Change in Growth Inhibition [2, 8]: 2.83
Fold Change in Growth Inhibition [2, 9]: 2.36
Fold Change in Growth Inhibition [2, 10]: 1.00
Fold Change in Growth Inhibition [2, 11]: 2.92
Fold Change in Growth Inhibition [2, 12]: 1.00
Fold Change in Growth Inhibition [2, 13]: 1.00
Fold Change in Growth Inhibition [2, 14]: 1.00
Fold Change in Growth Inhibition [2, 15]: 14.29
Fold Change in Growth Inhibition [2, 16]: 2.67
Fold Change in Growth Inhibition [2, 17]: 1.81
Fold Change in Growth Inhibition [2, 18]: 1.00
Fold Change in Growth Inhibition [2, 19]: 2.25
Fold Change in Growth Inhibition [2, 20]: 1.00
Fold Change in Growth Inhibition [2, 21]: 1.47
Fold Change in Growth Inhibition [2, 22]: 1.08
Fold Change in Growth Inhibition [2, 23]: 12.70
Fold Change in Growth Inhibition [2, 24]: 2.17
Fold Change in Growth Inhibition [2, 25]: 1.36
Fold Change in Growth Inhibition [2, 26]: 1.00
inherent fungicidal activity on their own [2]: did not demonstrate any inherent fungicidal activity
fungicidal activity compared to dimethomorph, prothioconazole, mancozeb, metalaxyl and pyrimethanil alone [2]: showed increased fungicidal activity
